Reference: DBAASP
Converted amounts (≈) assume the structure as drawn. Each block holds one compound with its values, some of them ahead of it.

Tests used:
Assay in all cases: ≥ marks a high value that may be exact or a test limit, other limits are often not marked, values filed in µg/mL are converted to µM
[1] = system: Bacillus subtilis KCTC 1918
[2] = system: Candida albicans TIMM 1768
[3] = system: Proteus vulgaris KCTC 2433
[4] = system: Saccharomyces cerevisiae KCTC 7296
[5] = system: Salmonella typhimurium KCTC 1926
[6] = system: Staphylococcus aureus KCTC 1621
[7] = system: Trichosporon beigelii KCTC 7707
Enterococcus faecium = system: Enterococcus faecium
Escherichia coli O157 = system: Escherichia coli O157
Pseudomonas aeruginosa 1 = system: Pseudomonas aeruginosa 1
Pseudomonas aeruginosa 2 = system: Pseudomonas aeruginosa 2
Pseudomonas aeruginosa 5 = system: Pseudomonas aeruginosa 5
Staphylococcus aureus 1 = system: Staphylococcus aureus 1
Staphylococcus aureus 4 = system: Staphylococcus aureus 4
Staphylococcus aureus 5 = system: Staphylococcus aureus 5
Staphylococcus aureus = system: Staphylococcus aureus
Escherichia coli BL21AI = system: Escherichia coli BL21AI
[8] = system: Escherichia coli DSM 10233
[9] = system: Klebsiella pneumoniae DSM 681
[10] = system: Micrococcus luteus ATCC 10240
[11] = system: Bacillus subtilis IFO 3143
[12] = system: Bacillus subtilis KCTC 3068
[13] = system: Escherichia coli IFO 12734
[14] = system: Escherichia coli KCTC 1682
[15] = system: Pseudomonas aeruginosa IFO 12582
[16] = system: Pseudomonas aeruginosa KCTC 1637
[17] = system: Staphylococcus aureus IFO 12732
[18] = system: Staphylococcus epidermidis KCTC 1917
[19] = system: Bacillus subtilis ATCC 6633
[20] = system: Enterococcus faecalis ATCC 12953
[21] = system: Escherichia coli ATCC 8739
[22] = system: Klebsiella pneumoniae ATCC 13885
[23] = system: Proteus mirabilis ATCC 25933
[24] = system: Pseudomonas aeruginosa ATCC 15442
[25] = system: Salmonella enterica subsp. enterica serovar Typhimurium ATCC 14028
[26] = system: Staphylococcus aureus ATCC 29213
[27] = system: Streptococcus pyogenes ATCC 19615
[28] = system: Aspergillus flavus KCTC 1375
[29] = system: Candida albicans ATCC 90028
[30] = system: Enterococcus faecium ATCC 19434
[31] = system: Escherichia coli O157:H7 ATCC 43895
Escherichia coli = system: Escherichia coli
[32] = system: Malassezia furfur KCTC 7744
[33] = system: Pseudomonas aeruginosa ATCC 27853
Pseudomonas aeruginosa = system: Pseudomonas aeruginosa
[34] = system: Staphylococcus aureus ATCC 25923

Structure (SMILES): CC[C@H](C)[C@H](NC(=O)CNC(=O)[C@H](CC(C)C)NC(=O)[C@H](CCCN=C(N)N)NC(=O)[C@H](CCCCN)NC(=O)[C@H](Cc1ccccc1)NC(=O)[C@@H](NC(=O)[C@H](CCCCN)NC(=O)[C@H](CCCCN)NC(=O)[C@H](C)N)C(C)C)C(=O)NCC(=O)N[C@@H](C)C(=O)N[C@H](C(=O)N[C@@H](CC(C)C)C(=O)N[C@@H](CCCCN)C(=O)N[C@H](C(=O)N[C@@H](CC(C)C)C(=O)N[C@@H](CCCCN)C(=O)N[C@@H](CCCCN)C(=O)NCC(=O)O)C(C)C)C(C)C [AKKVFKRLGIGAVLKVLKKG]
MIC [1]: 0.78 µM (≈ 1.68 µg/mL) | MIC [2]: 6.25 µM (≈ 13.5 µg/mL) | MIC [3]: 0.39 µM (≈ 0.84 µg/mL) | MIC [4]: 6.25 µM (≈ 13.5 µg/mL) | MIC [5]: 0.19 µM (≈ 0.409 µg/mL) | MIC [6]: 1.56 µM (≈ 3.36 µg/mL) | MIC [7]: 4.42 µM (≈ 9.52 µg/mL)

Structure (SMILES): CC[C@H](C)[C@H](NC(=O)[C@H](CC(C)C)NC(=O)[C@H](CCCN=C(N)N)NC(=O)[C@@H](NC(=O)[C@H](C)NC(=O)[C@H](CCCCN)NC(=O)[C@H](CO)NC(=O)[C@H](CC(C)C)NC(=O)[C@@H](N)CCC(=O)O)C(C)C)C(=O)N[C@@H](CCCCN)C(=O)O [ELSKAVRLIK]
MIC (Enterococcus faecium): 10 µM (≈ 11.6 µg/mL) | MIC (Escherichia coli O157): 20 µM (≈ 23.1 µg/mL) | MIC (Pseudomonas aeruginosa 1): 20 µM (≈ 23.1 µg/mL) | MIC (Pseudomonas aeruginosa 2): 10 µM (≈ 11.6 µg/mL) | MIC (Pseudomonas aeruginosa 5): 14.1 µM (≈ 16.4 µg/mL) | MIC (Staphylococcus aureus 1): 10 µM (≈ 11.6 µg/mL) | MIC (Staphylococcus aureus 4): 14.1 µM (≈ 16.4 µg/mL) | MIC (Staphylococcus aureus 5): ≥ 40 µM | MIC (Staphylococcus aureus): 20 µM (≈ 23.1 µg/mL)

Structure (SMILES): CC[C@H](C)[C@H](NC(=O)[C@@H]1CCCN1C(=O)[C@H](CCCN=C(N)N)NC(=O)[C@@H]1CCCN1C(=O)[C@H](Cc1cnc[nH]1)NC(=O)[C@H](CO)NC(=O)[C@@H](NC(=O)[C@@H]1CCCN1C(=O)[C@H](CCCN=C(N)N)NC(=O)[C@@H]1CCCN1C(=O)[C@@H](NC(=O)[C@H](Cc1ccc(O)cc1)NC(=O)[C@@H]1CCCN1C(=O)[C@H](CCCN=C(N)N)NC(=O)[C@@H]1CCCN1C(=O)[C@H](CCCCN)NC(=O)CN)[C@@H](C)O)[C@@H](C)O)C(=O)N[C@@H](CCCN=C(N)N)C(=O)N[C@H](C(=O)O)C(C)C [GKPRPYTPRPTSHPRPIRV]
MIC (Escherichia coli BL21AI): 3.62 µM (≈ 8 µg/mL) | MIC [8]: 0.904 µM (≈ 2 µg/mL) | MIC [9]: 3.62 µM (≈ 8 µg/mL) | MIC [10]: 0.904 µM (≈ 2 µg/mL)

Structure (SMILES): CC(C)C[C@H](NC(=O)[C@H](Cc1ccc(O)cc1)NC(=O)[C@H](Cc1cnc[nH]1)NC(=O)[C@@H](NC(=O)[C@H](CC(C)C)NC(=O)[C@H](C)NC(=O)[C@H](C)NC(=O)[C@H](CCCCN)NC(=O)[C@H](C)NC(=O)[C@@H](NC(=O)[C@H](Cc1cnc[nH]1)NC(=O)[C@H](CCCCN)NC(=O)[C@H](C)NC(=O)[C@@H](NC(=O)[C@H](Cc1cnc[nH]1)NC(=O)[C@H](C)NC(=O)[C@H](C)NC(=O)[C@H](CCCCN)NC(=O)[C@H](CCCCN)NC(=O)[C@H](Cc1ccccc1)NC(=O)[C@H](Cc1ccccc1)NC(=O)[C@H](CO)NC(=O)CNC(=O)[C@H](Cc1c[nH]c2ccccc12)NC(=O)CN)C(C)C)C(C)C)[C@@H](C)O)C(=O)O [GWGSFFKKAAHVAKHVAKAALTHYL]
MIC [11]: 0.365 µM (≈ 1 µg/mL) | MIC [12]: 4 µM (≈ 11 µg/mL) | MIC [13]: 0.73 µM (≈ 2 µg/mL) | MIC [14]: 1 µM (≈ 2.74 µg/mL) | MIC [15]: 1.46 µM (≈ 4 µg/mL) | MIC [16]: 1 µM (≈ 2.74 µg/mL) | MIC [5]: 1 µM (≈ 2.74 µg/mL) | MIC [17]: 1.46 µM (≈ 4 µg/mL) | MIC [6]: 0.5 µM (≈ 1.37 µg/mL) | MIC [18]: 0.5 µM (≈ 1.37 µg/mL)

The next lines start with the values.

MIC [19]: ≥ 42.6 µM | MIC [20]: ≥ 42.6 µM | MIC [21]: 21.3 µM (≈ 32 µg/mL) | MIC [22]: 21.3 µM (≈ 32 µg/mL) | MIC [23]: ≥ 42.6 µM | MIC [24]: 21.3 µM (≈ 32 µg/mL) | MIC [25]: 42.6 µM (≈ 64 µg/mL) | MIC [26]: 42.6 µM (≈ 64 µg/mL) | MIC [27]: ≥ 42.6 µM
Structure (SMILES): CC[C@H](C)[C@H](N)C(=O)N[C@@H](CCCCN)C(=O)N[C@@H](Cc1ccccc1)C(=O)N[C@@H](CCC(=O)O)C(=O)N1CCC[C@H]1C(=O)N1CCC[C@H]1C(=O)N[C@@H](CC(C)C)C(=O)N1CCC[C@H]1C(=O)N1CCC[C@H]1C(=O)N[C@@H](CCCCN)C(=O)N[C@@H](CCCCN)C(=O)N[C@@H](C)C(=O)N[C@@H](Cc1cnc[nH]1)C(N)=O [IKFEPPLPPKKAH]

MIC [28]: 20 µM (≈ 48.2 µg/mL) | MIC [29]: 14.1 µM (≈ 34.1 µg/mL) | MIC [30]: 20 µM (≈ 48.2 µg/mL) | MIC (Enterococcus faecium): 28.3 µM (≈ 68.2 µg/mL) | MIC [31]: 20 µM (≈ 48.2 µg/mL) | MIC (Escherichia coli): 28.3 µM (≈ 68.2 µg/mL) | MIC [32]: 20 µM (≈ 48.2 µg/mL) | MIC [33]: 14.1 µM (≈ 34.1 µg/mL) | MIC (Pseudomonas aeruginosa): 28.3 µM (≈ 68.2 µg/mL) | MIC [34]: 20 µM (≈ 48.2 µg/mL) | MIC (Staphylococcus aureus): 14.1 µM (≈ 34.1 µg/mL)
Structure (SMILES): CC(C)C[C@H](NC(=O)[C@H](Cc1ccc(O)cc1)NC(=O)[C@H](Cc1cnc[nH]1)NC(=O)[C@@H](NC(=O)[C@H](CC(C)C)NC(=O)[C@H](C)NC(=O)[C@H](C)NC(=O)[C@H](CCCCN)NC(=O)CNC(=O)[C@@H](NC(=O)[C@H](Cc1cnc[nH]1)NC(=O)[C@H](CCCCN)NC(=O)CNC(=O)[C@@H](NC(=O)[C@H](Cc1cnc[nH]1)NC(=O)[C@H](C)NC(=O)[C@H](C)NC(=O)[C@H](CCCCN)NC(=O)[C@H](CCCCN)NC(=O)[C@H](Cc1ccccc1)NC(=O)[C@H](Cc1ccccc1)NC(=O)[C@@H](N)CO)C(C)C)C(C)C)[C@@H](C)O)C(N)=O [SFFKKAAHVGKHVGKAALTHYL]
